Calls of active or inactive are those of the source. The rule behind the calls is not given here.

Experiment [1] concerns the target Glycogen synthase kinase-3 beta (Homo sapiens) (UniProt P49841). Description: Inhibition of GSK3beta phosphorylation at Ser9 in human Hep3B cells assessed as ratio of phosphorylated GSK3beta to beta-actin level at 10 uM after 48 hrs by Western blot analysis. The format is cell-based.
Experiment [2] deals with Hep 3B2. Description: Down regulation of HIST2H2BE expression in human Hep3B cells at 1 uM after 6 to 24 hrs by L1000 expression profiling method relative to control. In kind it is functional.
Experiment [3] concerns Hep 3B2. As to the kind of experiment: Up regulation of CDCA4 expression in human Hep3B cells at 1 uM after 6 to 24 hrs by L1000 expression profiling method relative to control. In kind it is functional.
The next experiment deals with HT-29. As to the kind of experiment: Cytotoxicity against human HT-29 cells after 6 days by MTT assay. The conditions noted are these: HT-29, 144 h. In kind it is functional, cell-based.
Experiment [4] relates to Hep 3B2. As to the kind of experiment: Induction of apoptosis in human Hep3B cells assessed as ratio of cleaved caspase-3 to beta actin level at 10 uM after 48 hrs in absence of curcumin by Western blot analysis. The format is functional.
For experiment [5], the system named is Hep 3B2. Description: Growth inhibition of human Hep3B cells after 48 hrs by MTT assay. The format is functional, cell-based.
Experiment [6] addresses Glycogen synthase kinase-3 alpha (Homo sapiens) (UniProt P49840). Description: Inhibition of GSK3alpha phosphorylation at Ser21 in human Hep3B cells assessed as ratio of phosphorylated […] to beta-actin level at 10 uM after 48 hrs by Western blot analysis. The format is cell-based.
The test system of experiment [7] is Hep 3B2. As to the kind of experiment: Cell cycle arrest in human Hep3B cells assessed as accumulation at G0/G1 phase at 10 uM after 48 hrs in presence of curcumin by propidium iodide staining based flow cytometry (reference value: […] +/- […]%). The format is functional.
The test system of experiment [8] is Hep 3B2. Description: Down regulation of IL1B expression in human Hep3B cells at 1 uM after 6 to 24 hrs by L1000 expression profiling method relative to control. In kind it is functional.
Experiment [9] has as its system Hep 3B2. As to the kind of experiment: Down regulation of PTPRC expression in human Hep3B cells at 1 uM after 6 to 24 hrs by L1000 expression profiling method relative to control. The format is functional.
Experiment [10] relates to Hep 3B2. Description: Down regulation of CD40 expression in human Hep3B cells at 1 uM after 6 to 24 hrs by L1000 expression profiling method relative to control. In kind it is functional.
Experiment [11] relates to Hep 3B2. Description: Down regulation of SHB expression in human Hep3B cells at 1 uM after 6 to 24 hrs by L1000 expression profiling method relative to control. In kind it is functional.
Experiment [12] deals with Hep 3B2. Description: Down regulation of FZD1 expression in human Hep3B cells at 1 uM after 6 to 24 hrs by L1000 expression profiling method relative to control. In kind it is functional.
Experiment [13] concerns Hep 3B2. Description: Cell cycle arrest in human Hep3B cells assessed as accumulation at S phase at 10 uM after 48 hrs in presence of curcumin by propidium iodide staining based flow cytometry (reference value: 23.8 +/- 1.9%). In kind it is functional.
Experiment [14] deals with Hep 3B2. As to the kind of experiment: Down regulation of GRB7 expression in human Hep3B cells at 1 uM after 6 to 24 hrs by L1000 expression profiling method relative to control. In kind it is functional.
Experiment [15] concerns Hep 3B2. As to the kind of experiment: Cytotoxicity against human Hep3B cells after 6 days by MTT assay. In kind it is functional, cell-based. As to conditions: 144 h.
For experiment [16], the system named is Hep 3B2. As to the kind of experiment: Down regulation of RTN2 expression in human Hep3B cells at 1 uM after 6 to 24 hrs by L1000 expression profiling method relative to control. The format is functional.
The subject of experiment [17] is Hep 3B2. As to the kind of experiment: Down regulation of PTK2B expression in human Hep3B cells at 1 uM after 6 to 24 hrs by L1000 expression profiling method relative to control. The format is functional.
Experiment [18] concerns Hep 3B2. Description: Up regulation of OXA1L expression in human Hep3B cells at 1 uM after 6 to 24 hrs by L1000 expression profiling method relative to control. In kind it is functional.
In experiment [19] the test system is Hep 3B2. Description: Down regulation of FOS expression in human Hep3B cells at 1 uM after 6 to 24 hrs by L1000 expression profiling method relative to control. In kind it is functional.
Experiment [20] deals with Hep 3B2. Description: Down regulation of HTRA1 expression in human Hep3B cells at 1 uM after 6 to 24 hrs by L1000 expression profiling method relative to control. The format is functional.
In experiment [21] the test system is Hep 3B2. As to the kind of experiment: Up regulation of CDKN1A expression in human Hep3B cells at 1 uM after 6 to 24 hrs by L1000 expression profiling method relative to control. The format is functional.
For experiment [22], the system named is Hep 3B2. Description: Down regulation of UBE2J1 expression in human Hep3B cells at 1 uM after 6 to 24 hrs by L1000 expression profiling method relative to control. The format is functional.
The subject of experiment [23] is Hep 3B2. Description: Down regulation of NVL expression in human Hep3B cells at 1 uM after 6 to 24 hrs by L1000 expression profiling method relative to control. The format is functional.
The subject of experiment [24] is Hep 3B2. Description: Induction of autophagy in human Hep3B cells assessed as ratio of LC3-2 to beta-actin level at 10 uM after 48 hrs in presence of curcumin by Western blot analysis. In kind it is functional.
Experiment [25] relates to Hep 3B2. As to the kind of experiment: Induction of autophagy in human Hep3B cells at 40 uM after 48 hrs by acridine orange staining based flow cytometry (reference value: 0.9 to 3%). The format is functional.
Experiment [26] concerns Hep 3B2. Description: Cell cycle arrest in human Hep3B cells assessed as accumulation at G0/G1 phase at 10 uM after 72 hrs by propidium iodide staining based flow cytometry (reference value: 41.6 to 46.2%). In kind it is functional.
For experiment [27], the system named is Hep 3B2. Description: Induction of autophagy in human Hep3B cells at 40 uM after 24 hrs by acridine orange staining based flow cytometry (reference value: 1.1 to 1.3%). In kind it is functional.
The test system of experiment [28] is Hep 3B2. Description: Cell cycle arrest in human Hep3B cells assessed as accumulation at G0/G1 phase at 5 uM after 48 hrs by propidium iodide staining based flow cytometry (reference value: 39.7 to 40.4%). In kind it is functional.
The test system of experiment [29] is Hep 3B2. As to the kind of experiment: Cell cycle arrest in human Hep3B cells assessed as accumulation at G0/G1 phase at 2.5 uM after 48 hrs by propidium iodide staining based flow cytometry (reference value: 39.7 to 40.4%). The format is functional.
Experiment [30] relates to Hep 3B2. Description: Cell cycle arrest in human Hep3B cells assessed as accumulation at G2/M phase at 40 uM after 48 hrs by propidium iodide staining based flow cytometry (reference value: 34.8 to […]%). In kind it is functional.
The test system of experiment [31] is Hep 3B2. Description: Cell cycle arrest in human Hep3B cells assessed as accumulation at sub-G1 phase at 40 uM after 48 hrs by propidium iodide staining based flow cytometry (reference value: 1.5 to 6.5%). In kind it is functional.
The subject of experiment [32] is Hep 3B2. As to the kind of experiment: Cell cycle arrest in human Hep3B cells assessed as accumulation at sub-G1 phase at 40 uM after 24 hrs by propidium iodide staining based flow cytometry (reference value: 1.9 to 3.6%). In kind it is functional.
For experiment [33], the system named is Hep 3B2. As to the kind of experiment: Induction of autophagy in human Hep3B cells assessed as ratio of LC3-2 to beta actin level at 40 uM after 72 hrs in presence of curcumin by Western blot analysis.
The test system of experiment [34] is Hep 3B2. Description: Cell cycle arrest in human Hep3B cells assessed as accumulation at S phase at 40 uM after 48 hrs by propidium iodide staining based flow cytometry (reference value: 20.8 to 24%). The format is functional.
Experiment [35] concerns Hep 3B2. As to the kind of experiment: Cell cycle arrest in human Hep3B cells assessed as accumulation at G0/G1 phase at 2.5 uM after 72 hrs by propidium iodide staining based flow cytometry (reference value: 41.6 to 46.2%). In kind it is functional.
For experiment [36], the system named is Hep 3B2. Description: Growth inhibition of human Hep3B cells at 10 uM up to 72 hrs by MTT assay. The format is functional, cell-based.

Glycogen synthase kinase-3 alpha (Homo sapiens), sequence (P49840 2-483 limits assumed): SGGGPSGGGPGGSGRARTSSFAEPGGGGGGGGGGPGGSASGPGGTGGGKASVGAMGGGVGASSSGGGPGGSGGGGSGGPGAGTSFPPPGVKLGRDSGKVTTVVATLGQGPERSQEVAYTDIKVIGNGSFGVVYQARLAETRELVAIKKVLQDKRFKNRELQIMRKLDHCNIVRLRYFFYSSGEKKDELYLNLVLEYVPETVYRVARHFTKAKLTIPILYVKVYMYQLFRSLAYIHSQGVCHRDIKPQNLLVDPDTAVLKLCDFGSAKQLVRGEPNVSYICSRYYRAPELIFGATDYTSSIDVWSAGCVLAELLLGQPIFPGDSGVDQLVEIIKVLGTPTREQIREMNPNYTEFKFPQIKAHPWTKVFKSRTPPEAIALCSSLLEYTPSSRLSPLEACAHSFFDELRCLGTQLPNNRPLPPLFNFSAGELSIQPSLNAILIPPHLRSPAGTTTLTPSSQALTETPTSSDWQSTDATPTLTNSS
Glycogen synthase kinase-3 beta (Homo sapiens), sequence (P49841 whole entry, looked up): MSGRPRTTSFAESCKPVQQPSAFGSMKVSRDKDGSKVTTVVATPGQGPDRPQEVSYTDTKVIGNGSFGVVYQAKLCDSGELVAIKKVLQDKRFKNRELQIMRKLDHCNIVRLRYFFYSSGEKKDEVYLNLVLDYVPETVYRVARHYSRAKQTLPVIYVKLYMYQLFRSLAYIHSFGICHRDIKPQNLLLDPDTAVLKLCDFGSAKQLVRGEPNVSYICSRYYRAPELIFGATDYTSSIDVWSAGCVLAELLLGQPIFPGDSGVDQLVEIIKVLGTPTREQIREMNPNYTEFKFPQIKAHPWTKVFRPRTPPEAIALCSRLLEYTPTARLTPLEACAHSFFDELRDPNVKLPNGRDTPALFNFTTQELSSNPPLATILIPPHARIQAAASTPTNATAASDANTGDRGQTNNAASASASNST

`O=C1COc2ccccc2N1Cc1cn(CCC2OCCO2)nn1`: the Ratio in experiment [1] was 0.7; in the experiment on Hep 3B2 [4], 2.8; in experiment [6], 0.9; in the experiment with Hep 3B2 [24], 10.5. The log2FC is -4.2274 in the experiment with Hep 3B2 [2]; 3.2705 in the experiment with Hep 3B2 [3]; -3.3463 in the experiment on Hep 3B2 [8]; -3.9957 in the experiment with Hep 3B2 [9]; -3.3087 with Hep 3B2 [10]; -3.2569 in the experiment with Hep 3B2 [11]. The log2FC in the experiment on Hep 3B2 [12] is on record as -3.5324; in the experiment with Hep 3B2 [14] it was -4.419; in the experiment on Hep 3B2 [16] it was -4.1606; in the experiment on Hep 3B2 [17], -3.3744; with Hep 3B2 [18] it was 3.2193; with Hep 3B2 [19] it was -3.1627. Moreover, the log2FC in the experiment with Hep 3B2 [20] is listed as -3.2036; with Hep 3B2 [21], 3.0523; in the experiment on Hep 3B2 [22], -3.3451; in the experiment on Hep 3B2 [23], -3.779. For the same compound, the IC50 in the experiment with HT-29 worked out at 5.7 µM; in the experiment on Hep 3B2 [15] it was 0.5 µM. For the same compound, in the experiment on Hep 3B2 [5], the “growth inhibition (GI)” value was “Dose-dependent effect”. Besides, the Activity with Hep 3B2 [7] is 24.8%; with Hep 3B2 [13] it was 8.8%.

With `COc1ccc(CNC(=O)Nc2ncc([N+](=O)[O-])s2)cc1`, the Activity in the experiment with Hep 3B2 [25] amounted to 7.7%; with Hep 3B2 [26], 43.3%; with Hep 3B2 [27], 7.1%; with Hep 3B2 [28], 38.5%; in the experiment on Hep 3B2 [29], 38.5%; in the experiment with Hep 3B2 [30], 41.6%. In addition, the Activity is recorded as 8.9% with Hep 3B2 [31], 6.5% in the experiment with Hep 3B2 [32], 14.9% in the experiment with Hep 3B2 [34] and 42.3% with Hep 3B2 [35]. In the experiment on Hep 3B2 [33], the Ratio worked out at 2.6. Also, the “growth inhibition (GI)” value with Hep 3B2 [36] is “Active”.
